What was measured:
barnyard grass [1] = assay: Test Example 3: herbicidal effect by foliage application, Wagner pot (Table 18, symbol H); format: in vivo, barnyard grass (Echinochloa crus-galli); details: 320 g/ha
Outline: (§1)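 Plants were sown in alluvial soil held under 0.1–0.5 cm standing water and grown 14 days in a greenhouse at 25–30 °C. An emulsifiable formulation, water-diluted to the set dose, was then sprayed onto the foliage, and effects were scored three weeks later using previously defined criteria.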

barnyard grass [2] = assay: Test Example 5: herbicidal effect by foliage application, plastic box (Table 20, symbol H); format: in vivo, barnyard grass (Echinochloa crus-galli); details: 320 g/ha, foliage application after 14-day growth, evaluated three weeks after application
Outline: (§2)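 Plants sown in sterilized diluvial soil and grown 14 days in a greenhouse at 25° C to 30° C, then sprayed on the foliage with the compound's emulsion diluted in water to a predetermined herbicide amount. Injury to weeds and crops scored three weeks after application on a visual rating scale.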

persian speedwell [3] = assay: Test Example 5: herbicidal effect by foliage application, plastic box (Table 20, symbol R); format: in vivo, Persian speedwell (Veronica persica); details: 320 g/ha, foliage application after 14-day growth, evaluated three weeks after application
Outline: as §2

lambsquarters [4] = assay: Test Example 4: herbicidal effect by soil treatment (Table 19, symbol O); format: in vivo, lambsquarters (Chenopodium album); details: amount of applied herbicide 320 g/ha
Outline: (§3)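 Three weeks of greenhouse growth at 25° C. to 30° C. followed a uniform surface spray of water-diluted emulsion at a predetermined herbicide amount. Seeds had been sown beforehand under about 1.5 cm of sterilized diluvial soil. Grading followed criteria set out in an earlier test.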

oval-leafed pondweed = assay: Test Example 1: herbicidal activity, application before weed generation under submerged conditions (Table 16, symbol C); format: in vivo, oval-leafed pondweed (Monochoria vaginalis); details: amount of applied herbicide 320 g/ha
Outline: (§4)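 Emulsion formulation, water-diluted to set dose, was put onto the flooded surface (4 cm depth, alluvial soil) the same day weeds were sown and 2.5-leaf rice transplanted. After 3 weeks at 25-30 °C under glass, each species was rated 0 (≤5% kill) to 5 (≥90% kill).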

blackgrass [5] = assay: Test Example 4: herbicidal effect by soil treatment (Table 19, symbol J); format: in vivo, blackgrass (Alopecurus myosuroides); details: amount of applied herbicide 320 g/ha
Outline: as §3

rice flat sedge = assay: Test Example 3: herbicidal effect by foliage application, Wagner pot (Table 18, symbol E); format: in vivo, rice flat sedge (Cyperus iria); details: 320 g/ha
Outline: as §1

green foxtail [6] = assay: Test Example 4: herbicidal effect by soil treatment (Table 19, symbol G); format: in vivo, green foxtail (Setaria viridis); details: amount of applied herbicide 320 g/ha
Outline: as §3

southern crabgrass [7] = assay: Test Example 4: herbicidal effect by soil treatment (Table 19, symbol F); format: in vivo, southern crabgrass (Digitaria ciliaris); details: amount of applied herbicide 320 g/ha
Outline: as §3

persian speedwell [8] = assay: Test Example 4: herbicidal effect by soil treatment (Table 19, symbol R); format: in vivo, Persian speedwell (Veronica persica); details: amount of applied herbicide 320 g/ha
Outline: as §3

Chinese sprangletop = assay: Test Example 3: herbicidal effect by foliage application, Wagner pot (Table 18, symbol D); format: in vivo, chinese sprangletop (Leptochloa chinensis); details: 320 g/ha
Outline: as §1

Italian ryegrass [9] = assay: Test Example 4: herbicidal effect by soil treatment (Table 19, symbol K); format: in vivo, Italian ryegrass (Lolium multiflorum); details: amount of applied herbicide 320 g/ha
Outline: as §3

blackgrass [10] = assay: Test Example 5: herbicidal effect by foliage application, plastic box (Table 20, symbol J); format: in vivo, blackgrass (Alopecurus myosuroides); details: 320 g/ha, foliage application after 14-day growth, evaluated three weeks after application
Outline: as §2

windgrass [11] = assay: Test Example 4: herbicidal effect by soil treatment (Table 19, symbol L); format: in vivo, windgrass (Apera spica-venti); details: amount of applied herbicide 320 g/ha
Outline: as §3

wild oat [12] = assay: Test Example 5: herbicidal effect by foliage application, plastic box (Table 20, symbol I); format: in vivo, wild oat (Avena fatua); details: 320 g/ha, foliage application after 14-day growth, evaluated three weeks after application
Outline: as §2

chickweed [13] = assay: Test Example 4: herbicidal effect by soil treatment (Table 19, symbol P); format: in vivo, common chickweed (Stellaria media); details: amount of applied herbicide 320 g/ha
Outline: as §3

green foxtail [14] = assay: Test Example 5: herbicidal effect by foliage application, plastic box (Table 20, symbol G); format: in vivo, green foxtail (Setaria viridis); details: 320 g/ha, foliage application after 14-day growth, evaluated three weeks after application
Outline: as §2

southern crabgrass [15] = assay: Test Example 5: herbicidal effect by foliage application, plastic box (Table 20, symbol F); format: in vivo, southern crabgrass (Digitaria ciliaris); details: 320 g/ha, foliage application after 14-day growth, evaluated three weeks after application
Outline: as §2

redroot pigweed [16] = assay: Test Example 5: herbicidal effect by foliage application, plastic box (Table 20, symbol N); format: in vivo, redroot pigweed (Amaranthus retroflexus); details: 320 g/ha, foliage application after 14-day growth, evaluated three weeks after application
Outline: as §2

velvetleaf [17] = assay: Test Example 5: herbicidal effect by foliage application, plastic box (Table 20, symbol M); format: in vivo, velvetleaf (Abutilon theophrasti); details: 320 g/ha, foliage application after 14-day growth, evaluated three weeks after application
Outline: as §2

wild oat [18] = assay: Test Example 4: herbicidal effect by soil treatment (Table 19, symbol I); format: in vivo, wild oat (Avena fatua); details: amount of applied herbicide 320 g/ha
Outline: as §3

Italian ryegrass [19] = assay: Test Example 5: herbicidal effect by foliage application, plastic box (Table 20, symbol K); format: in vivo, Italian ryegrass (Lolium multiflorum); details: 320 g/ha, foliage application after 14-day growth, evaluated three weeks after application
Outline: as §2

Japanese bulrush = assay: Test Example 1: herbicidal activity, application before weed generation under submerged conditions (Table 16, symbol B); format: in vivo, Japanese bulrush (Schoenoplectus juncoides); details: amount of applied herbicide 320 g/ha
Outline: as §4

windgrass [20] = assay: Test Example 5: herbicidal effect by foliage application, plastic box (Table 20, symbol L); format: in vivo, windgrass (Apera spica-venti); details: 320 g/ha, foliage application after 14-day growth, evaluated three weeks after application
Outline: as §2

lambsquarters [21] = assay: Test Example 5: herbicidal effect by foliage application, plastic box (Table 20, symbol O); format: in vivo, lambsquarters (Chenopodium album); details: 320 g/ha, foliage application after 14-day growth, evaluated three weeks after application
Outline: as §2

velvetleaf [22] = assay: Test Example 4: herbicidal effect by soil treatment (Table 19, symbol M); format: in vivo, velvetleaf (Abutilon theophrasti); details: amount of applied herbicide 320 g/ha
Outline: as §3

barnyard grass [23] = assay: Test Example 4: herbicidal effect by soil treatment (Table 19, symbol H); format: in vivo, barnyard grass (Echinochloa crus-galli); details: amount of applied herbicide 320 g/ha
Outline: as §3

late watergrass = assay: Test Example 1: herbicidal activity, application before weed generation under submerged conditions (Table 16, symbol A); format: in vivo, late watergrass (Echinochloa oryzicola); details: amount of applied herbicide 320 g/ha
Outline: as §4

chickweed [24] = assay: Test Example 5: herbicidal effect by foliage application, plastic box (Table 20, symbol P); format: in vivo, common chickweed (Stellaria media); details: 320 g/ha, foliage application after 14-day growth, evaluated three weeks after application
Outline: as §2

redroot pigweed [25] = assay: Test Example 4: herbicidal effect by soil treatment (Table 19, symbol N); format: in vivo, redroot pigweed (Amaranthus retroflexus); details: amount of applied herbicide 320 g/ha
Outline: as §3

Row | Structure (SMILES) | herbicidal effect on barnyard grass (H) (barnyard grass [1]) | herbicidal effect on H: barnyard grass (evaluation grade 0-5) (barnyard grass [2]) | herbicidal effect on R: persian speedwell (evaluation grade 0-5) (persian speedwell [3]) | Herbicidal effect by soil treatment, O: lambsquarters (lambsquarters [4]) | Herbicidal effect, C: oval-leafed pondweed (oval-leafed pondweed) | Herbicidal effect by soil treatment, J: blackgrass (blackgrass [5]) | herbicidal effect on rice flat sedge (E) (rice flat sedge) | Herbicidal effect by soil treatment, G: green foxtail (green foxtail [6]) | Herbicidal effect by soil treatment, F: southern crabgrass (southern crabgrass [7]) | Herbicidal effect by soil treatment, R: persian speedwell (persian speedwell [8]) | herbicidal effect on Chinese sprangletop (D) (Chinese sprangletop) | Herbicidal effect by soil treatment, K: Italian ryegrass (Italian ryegrass [9]) | herbicidal effect on J: blackgrass (evaluation grade 0-5) (blackgrass [10]) | Herbicidal effect by soil treatment, L: windgrass (windgrass [11]) | herbicidal effect on I: wild oat (evaluation grade 0-5) (wild oat [12]) | Herbicidal effect by soil treatment, P: chickweed (chickweed [13]) | herbicidal effect on G: green foxtail (evaluation grade 0-5) (green foxtail [14]) | herbicidal effect on F: southern crabgrass (evaluation grade 0-5) (southern crabgrass [15]) | herbicidal effect on N: redroot pigweed (evaluation grade 0-5) (redroot pigweed [16]) | herbicidal effect on M: velvetleaf (evaluation grade 0-5) (velvetleaf [17]) | also measured
1 | CCOc1cc(F)ccc1-c1sc2c(Cl)cccc2c1-c1c(O)c(C)nn(C)c1=O [4-035] | 5 (Herbicidal rate of 90% or more (almost completely withered)) | 5 (Herbicidal rate of 90% or more (almost completely withered)) | 5 (Herbicidal rate of 90% or more (almost completely withered)) | 0 (Herbicidal rate of 5% or less (almost no effect)) | 0 (Herbicidal rate of 5% or less (almost no effect)) | 0 (Herbicidal rate of 5% or less (almost no effect)) | 5 (Herbicidal rate of 90% or more (almost completely withered)) | 3 (Herbicidal rate of 40% or more and less than 70%) | 4 (Herbicidal rate of 70% or more and less than 90%) | 1 (Herbicidal rate of 5% or more and less than 20%) | 3 (Herbicidal rate of 40% or more and less than 70%) | 0 (Herbicidal rate of 5% or less (almost no effect)) | 5 (Herbicidal rate of 90% or more (almost completely withered)) | 0 (Herbicidal rate of 5% or less (almost no effect)) | 0 (Herbicidal rate of 5% or less (almost no effect)) | 3 (Herbicidal rate of 40% or more and less than 70%) | 5 (Herbicidal rate of 90% or more (almost completely withered)) | 5 (Herbicidal rate of 90% or more (almost completely withered)) | 5 (Herbicidal rate of 90% or more (almost completely withered)) | 4 (Herbicidal rate of 70% or more and less than 90%) | Herbicidal effect by soil treatment, I: wild oat (wild oat [18]): 0 (Herbicidal rate of 5% or less (almost no effect)); herbicidal effect on K: Italian ryegrass (evaluation grade 0-5) (Italian ryegrass [19]): 4 (Herbicidal rate of 70% or more and less than 90%); Herbicidal effect, B: Japanese bulrush (Japanese bulrush): 0 (Herbicidal rate of 5% or less (almost no effect)); herbicidal effect on L: windgrass (evaluation grade 0-5) (windgrass [20]): 5 (Herbicidal rate of 90% or more (almost completely withered)); herbicidal effect on O: lambsquarters (evaluation grade 0-5) (lambsquarters [21]): 4 (Herbicidal rate of 70% or more and less than 90%); Herbicidal effect by soil treatment, M: velvetleaf (velvetleaf [22]): 2 (Herbicidal rate of 20% or more and less than 40%); Herbicidal effect by soil treatment, H: barnyard grass (barnyard grass [23]): 5 (Herbicidal rate of 90% or more (almost completely withered)); Herbicidal effect, A: late watergrass (late watergrass): 2 (Herbicidal rate of 20% or more and less than 40%); herbicidal effect on P: chickweed (evaluation grade 0-5) (chickweed [24]): 4 (Herbicidal rate of 70% or more and less than 90%); Herbicidal effect by soil treatment, N: redroot pigweed (redroot pigweed [25]): 3 (Herbicidal rate of 40% or more and less than 70%)
2 | CCCC(=O)Oc1c(C)nn(C)c(=O)c1-c1c(-c2ccc(OC(F)(F)F)cc2)sc2c(F)cccc12 [4-049] | 5 (Herbicidal rate of 90% or more (almost completely withered)) | 5 (Herbicidal rate of 90% or more (almost completely withered)) | 5 (Herbicidal rate of 90% or more (almost completely withered)) | 3 (Herbicidal rate of 40% or more and less than 70%) | 0 (Herbicidal rate of 5% or less (almost no effect)) | 0 (Herbicidal rate of 5% or less (almost no effect)) | 5 (Herbicidal rate of 90% or more (almost completely withered)) | 0 (Herbicidal rate of 5% or less (almost no effect)) | 0 (Herbicidal rate of 5% or less (almost no effect)) | 4 (Herbicidal rate of 70% or more and less than 90%) | 3 (Herbicidal rate of 40% or more and less than 70%) | 0 (Herbicidal rate of 5% or less (almost no effect)) | 0 (Herbicidal rate of 5% or less (almost no effect)) | 0 (Herbicidal rate of 5% or less (almost no effect)) | 0 (Herbicidal rate of 5% or less (almost no effect)) | 3 (Herbicidal rate of 40% or more and less than 70%) | 4 (Herbicidal rate of 70% or more and less than 90%) | 0 (Herbicidal rate of 5% or less (almost no effect)) | 5 (Herbicidal rate of 90% or more (almost completely withered)) | 5 (Herbicidal rate of 90% or more (almost completely withered)) | Herbicidal effect by soil treatment, I: wild oat (wild oat [18]): 0 (Herbicidal rate of 5% or less (almost no effect)); herbicidal effect on K: Italian ryegrass (evaluation grade 0-5) (Italian ryegrass [19]): 0 (Herbicidal rate of 5% or less (almost no effect)); Herbicidal effect, B: Japanese bulrush (Japanese bulrush): 0 (Herbicidal rate of 5% or less (almost no effect)); herbicidal effect on L: windgrass (evaluation grade 0-5) (windgrass [20]): 0 (Herbicidal rate of 5% or less (almost no effect)); herbicidal effect on O: lambsquarters (evaluation grade 0-5) (lambsquarters [21]): 3 (Herbicidal rate of 40% or more and less than 70%); Herbicidal effect by soil treatment, M: velvetleaf (velvetleaf [22]): 0 (Herbicidal rate of 5% or less (almost no effect)); Herbicidal effect by soil treatment, H: barnyard grass (barnyard grass [23]): 0 (Herbicidal rate of 5% or less (almost no effect)); Herbicidal effect, A: late watergrass (late watergrass): 3 (Herbicidal rate of 40% or more and less than 70%); herbicidal effect on P: chickweed (evaluation grade 0-5) (chickweed [24]): 5 (Herbicidal rate of 90% or more (almost completely withered)); Herbicidal effect by soil treatment, N: redroot pigweed (redroot pigweed [25]): 4 (Herbicidal rate of 70% or more and less than 90%)

— patent US20230085307A1, “PYRIDAZINONE COMPOUND AND HERBICIDE” (NISSAN CHEMICAL CORPORATION, priority 2019, published 2023)
